From patent US8063225B2, “Tricyclic compound derivatives useful in the treatment of neoplastic diseases, inflammatory disorders and immunomodulatory disorders” (Chembridge Corporation, priority 2006, dated 2011)

Columns and labels:
K562 = test: Cell proliferation inhibition, Cell Titer-Glo, K562; type: cell-based; conditions: Homo sapiens; cell proliferation assay, K562 cells
Procedure, shortened: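 K562 cells were seeded at 2500-5000 cells per well in white, clear-bottomed 384-well culture plates and treated with dilutions of test compounds for typically 3 days. Viable cells were quantified with the Cell Titer-Glo Luminescent Cell Viability Assay (Promega), which measures total ATP, read on a luminescence plate reader to derive IC50 values for proliferation inhibition.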

H929 (multiple myeloma) = test: Cell proliferation inhibition, Cell Titer-Glo, H929; type: cell-based; conditions: Homo sapiens, NCI-H929; cell proliferation assay, H929 cells
Method: IGF1R and other tyrosine kinase inhibitors can inhibit the proliferation of certain cancer cell lines indicating their possible therapeutic utility for treating the corresponding cancer types. Cancer cell lines of interest and control normal lines, including CHO, HEK293, BA/F3, MM1, H929, COLO205, PC3, DU145, MCF7, Panc1, ACHN, Hep G2, H460, K562, TT, U87-G, CAOV-3, SK-MEL5, Karpas 299, are plated in white, clear-bottomed 384-well cell culture plates at 2500-5000 cells per well and supplied with dilutions of tested compounds After a desired period of time (typically 3 days), the number of viable cells is quantitated by using Cell Titer-Glo Luminescent Cell Viability Assay (Promega), a cell proliferation assay system based on detection of total amount of ATP present as a measure of cell metabolic activity. The plated cells are mixed with the Cell Titer-Glo developing reagent and counted in a luminescence multiwell plate reader according to the standard manufacturer's protocol to generate IC50 curves for cell proliferation inhibition.
IGF1R and other tyrosine kinase inhibitors can inhibit the proliferation of certain cancer cell lines indicating their possible therapeutic utility for treating the corresponding cancer types. Cancer cell lines of interest and control normal lines, including CHO, HEK293, BA/F3, COLO205, PC3, DU145, MCF7, Panc1, ACHN, Hep G2, H460, K562, TT, U87-MG, CAOV-3, SK-MEL5, Karpas 299 and human multiple myeloma cell lines H929, MM1s, MM1r, UTMC2, CPM2, KMS11, My5, KMS12PE, My7, JJN3, KMS18, U266, SKMM2, RPMI-8226 are plated in white, clear-bottomed 384-well cell culture plates at 2500-5000 cells per well and supplied with dilutions of tested compounds After a desired period of time (typically 3 days), the number of viable cells is quantitated by using Cell Titer-Glo Luminescent Cell Viability Assay (Promega), a cell proliferation assay system based on detection of total amount of ATP present as a measure of cell metabolic activity. The plated cells are mixed with the Cell Titer-Glo developing reagent and counted in a luminescence multiwell plate reader according to the standard manufacturer's protocol to generate IC50 curves for cell proliferation inhibition. Results are typically reported as percent of growth (% viability =(OD72h(compound)−ODday0))/(OD72h(no compound)−ODday0). Alternatively, viable cells are quantitated by using the conventional colorimetric MTT assay. The MTT assay is based on the cleavage of the yellow tetrazolium salt MTT to purple formazan crystal by metabolic active cells. The formazan is then solubilized, and the concentration determined by optical density at 570 nm. The cells plated and incubated with a compound as described above are supplemented with the solution of MTT and incubated for 2-3 hours. The growth medium is removed and dimethyl sulfoxide is added into each well to dissolve the formazan. The absorbance is measured on an ELISA plate reader with a test wavelength of 570 nm and a background subtraction wavelength of 630 nm to obtain sample signal (OD570-OD630). […] The results are reported in terms of IC50 value for a particular compound and a cell line in the standard 3-day proliferation assay using Cell Titer-Glo. […] The results are reported in terms of IC50 value for a particular compound and a cell line in the standard 3-day proliferation assay using MTT assay.

Jak2 = biological target: T1, Jak2 (Homo sapiens, UniProt O60674); test: Tyrosine kinase assay (Kinase-Glo or AlphaScreen), Jak2; conditions: biochemical tyrosine kinase assay
T1 construct: 6×His- or GST-tagged kinase domain fragments of the corresponding RTKs expressed in baculovirus system; host or cells: baculovirus system
Procedure, shortened: (§1)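 Luminescence of remaining ATP (Kinase-Glo) or anti-phosphotyrosine AlphaScreen proximity signal served as read-out. Reactions held purified tagged kinase domain, poly(Glu-Tyr) substrate and 10 μM ATP at pH 7.5. IC50 values came from non-linear regression fits.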

Karpas-299 = test: Cell proliferation inhibition, Cell Titer-Glo, Karpas-299; type: cell-based; conditions: Homo sapiens; cell proliferation assay, Karpas-299 cells
Procedure, shortened: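 Karpas 299 cells were seeded into white, clear-bottomed 384-well culture plates at 2500-5000 cells per well and exposed to serial dilutions of test compounds for about 3 days. Viable cell numbers were then measured with the Cell Titer-Glo Luminescent Cell Viability Assay (Promega), which detects total ATP, and IC50 values for proliferation inhibition were derived.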

IGF1R tyrosine kinase = biological target: T2, IGF1R tyrosine kinase (Homo sapiens, UniProt P08069); test: IGF1R tyrosine kinase assay (Kinase-Glo ATP depletion or PT66/PT100 AlphaScreen); conditions: biochemical tyrosine kinase assay
T2 construct: 6×His- or GST-tagged kinase domain fragments of the corresponding RTKs expressed in baculovirus system; host or cells: baculovirus system
Procedure, shortened: as §1

Alk = biological target: T3, Alk (Homo sapiens, UniProt Q9UM73); test: Tyrosine kinase assay (Kinase-Glo or AlphaScreen), Alk; conditions: biochemical tyrosine kinase assay
T3 construct: 6×His- or GST-tagged kinase domain fragments of the corresponding RTKs expressed in baculovirus system; host or cells: baculovirus system
Procedure, shortened: as §1

InsR = biological target: T4, InsR (Homo sapiens, UniProt P06213); test: Tyrosine kinase assay (Kinase-Glo or AlphaScreen), InsR; conditions: biochemical tyrosine kinase assay
T4 construct: 6×His- or GST-tagged kinase domain fragments of the corresponding RTKs expressed in baculovirus system; host or cells: baculovirus system
Procedure, shortened: as §1

Ba/F3 = test: Cell proliferation inhibition, Cell Titer-Glo, Ba/F3; type: cell-based; conditions: Mus musculus, BaF3; cell proliferation assay, Ba/F3 cells
Procedure, shortened: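 Ba/F3 cells were seeded at 2500-5000 cells per well in white, clear-bottomed 384-well culture plates and exposed to serial dilutions of test compounds for 3 days. Cell Titer-Glo Luminescent Cell Viability Assay (Promega) reagent, which measures total ATP as an indicator of metabolic activity, was added. Luminescence was read on a multiwell plate reader to derive IC50 values for inhibition of proliferation.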

IGF1 receptor = biological target: T5, IGF1 receptor (Homo sapiens, UniProt P08069); test: ELISA-based assay of IGF1 receptor autophosphorylation inhibition in cells; type: cell-based; conditions: IGF1R phosphorylation inhibition in MCF7 cells
T5 construct: MCF7 human breast cancer cells expressing IGF1 receptor; endogenous in cells; host or cells: MCF7 human breast cancer cells
Method: In another embodiment, compounds that interact with the IGF1R kinase domain are tested in a cell-based assay system. In accordance with this embodiment, cells expressing a full-length IGF1 receptor or a fragment thereof containing the IGF1R kinase domain, are contacted with a candidate or a control compound and the ability of the compound to block tyrosine kinase activity of IGF1R within a cell is determined. This assay may be used to screen a single compound or a large library of candidate compounds. Typically, the cells or cell lines are of mammalian origin and they can express the IGF1 receptor, or functional IGF1R kinase domain fragment, endogenously or be genetically engineered to express the IGF1R, or functional fragment thereof. The ability of the candidate compound to inhibit IGF1R kinase activity can be determined by methods known to those skilled in the art. For example, the inhibition can be determined by ELISA-type assay or Western blot analysis with cell lysates or immunoprecipitated IGF1R receptor using various anti-IGF1R and anti-phosphotyrosine antibodies.
In general, cells expressing IGF1R are treated with modulators (i.e., inhibitors or activators) of IGF1R kinase activity and cell lysates are produced from these treated cells. IGF1Rs are isolated from the lysate by immunoprecipitation and analyzed for phosphotyrosine content. Alternatively, or in addition, cellular protein substrates phosphorylated by IGFR may be immunoprecipitated from the lysates and their degree of tyrosine phosphorylation determined.
MCF7 human breast cancer cells expressing IGF1 receptor or an engineered […] fibroblast cell line NIH 3T3 overexpressing full-length IGF1R are an exemplary cellular models in which to perform such assays. Such cells may be maintained in DMEM medium supplemented with 10% fetal bovine serum (FBS), 4% L-glutamine, 1% antibiotic solution (penicillin-Streptomycin) in a humidified atmosphere of 95% air and 5% CO2 at 37° C. Confluent cells in T175 cell culture flasks are incubated overnight with serum-free DMEM medium. After the serum starvation step, the cells are detached and split into a standard 96-well cell culture plate (one T175 flask per plate, 30 μl of cell suspension per plate well). Tested inhibitors from their 10 mM stock solutions in DMSO are subsequently added at various concentrations in serum-free DMEM medium for 1 hour incubation at 37° C. in CO2-incubator; total DMSO concentration in both treated and control wells is adjusted to 1%. Cells are then stimulated for 10 minutes with 100 nM IGF-1 added in 30 μl DMEM. After treatment, cells are lysed by addition of 30 μl of 4× lysis buffer (phosphate-buffered saline (PBS), 2% Triton-X100, 1 mM phenylmethylsulphonyl fluoride (PMSF) and 8 mM activated orthovanadate), mixing and incubation for 15 minute at room temperature. To prepare assay plates, 96-well ELISA Plates (Pierce Chemical, Reacti-bind plates) were coated by goat-anti-rabbit Fc antiserum by adding 0.25 μg antiserum per well in 0.2M sodium bicarbonate buffer per well and incubating overnight at 4° C. After incubation, the plate is washed three times by PBS with 0.02% Tween-20, supplied with 25 ng/50 μl per well of anti-IGF1R antibody (C-20, Santa Cruz Biotechnology) and incubated for several hours to overnight. Prior to the addition of the prepared cellular lysates, the antibody solution is aspirated, wells washed with PBS and supplied with 25 μl per well of Starting Block buffer (Pierce Chemical).
To measure tyrosine phosphorylation of the beta-subunits of the IGF1R, 25-50 μl of the lysates are transferred from the stimulation plate to the wells of the prepared assay plate and incubated overnight at 4° C. The wells are washed with PBS with 0.02% Tween-20, incubated with 50 μl of 1:3000 dilution of anti-phosphotyrosine 4G10-HRP antibody conjugate (Upstate Biotechnology) for 2 hours at room temperature and washed again. […]

T2 sequence (P08069 999-1274 limits assumed): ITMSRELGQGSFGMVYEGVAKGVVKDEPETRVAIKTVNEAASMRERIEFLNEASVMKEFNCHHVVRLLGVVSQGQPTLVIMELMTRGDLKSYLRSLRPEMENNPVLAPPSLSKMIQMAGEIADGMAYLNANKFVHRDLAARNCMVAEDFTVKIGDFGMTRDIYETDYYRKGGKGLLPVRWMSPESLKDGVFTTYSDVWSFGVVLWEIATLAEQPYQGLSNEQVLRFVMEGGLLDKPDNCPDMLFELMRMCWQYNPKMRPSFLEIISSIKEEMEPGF
T3 sequence (Q9UM73 1116-1392 limits assumed, species assumed): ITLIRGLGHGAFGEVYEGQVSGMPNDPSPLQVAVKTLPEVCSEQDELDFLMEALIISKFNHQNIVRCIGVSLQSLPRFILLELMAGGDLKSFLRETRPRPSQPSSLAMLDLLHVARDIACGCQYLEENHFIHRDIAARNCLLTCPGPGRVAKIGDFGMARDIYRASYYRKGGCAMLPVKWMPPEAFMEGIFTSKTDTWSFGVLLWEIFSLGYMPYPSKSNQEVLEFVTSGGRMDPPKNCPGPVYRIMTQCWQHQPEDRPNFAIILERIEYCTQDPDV
T4 sequence (P06213 1023-1298 limits assumed, species assumed): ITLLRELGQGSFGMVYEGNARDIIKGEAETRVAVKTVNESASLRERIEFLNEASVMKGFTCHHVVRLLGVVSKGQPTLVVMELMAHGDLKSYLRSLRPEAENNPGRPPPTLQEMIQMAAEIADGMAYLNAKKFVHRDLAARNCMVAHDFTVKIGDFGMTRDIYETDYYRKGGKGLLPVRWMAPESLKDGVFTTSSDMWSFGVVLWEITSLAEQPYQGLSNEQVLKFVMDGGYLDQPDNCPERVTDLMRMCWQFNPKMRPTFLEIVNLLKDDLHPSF
T1 sequence (O60674 849-1124 limits assumed, species assumed): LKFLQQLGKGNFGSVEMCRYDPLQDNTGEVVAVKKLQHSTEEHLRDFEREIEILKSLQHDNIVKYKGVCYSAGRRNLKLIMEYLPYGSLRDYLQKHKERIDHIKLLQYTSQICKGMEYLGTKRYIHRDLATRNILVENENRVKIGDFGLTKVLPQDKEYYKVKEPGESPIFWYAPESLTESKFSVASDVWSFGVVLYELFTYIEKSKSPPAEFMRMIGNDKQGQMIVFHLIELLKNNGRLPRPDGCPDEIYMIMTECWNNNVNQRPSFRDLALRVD
T5 sequence (P08069 741-1367 limits assumed): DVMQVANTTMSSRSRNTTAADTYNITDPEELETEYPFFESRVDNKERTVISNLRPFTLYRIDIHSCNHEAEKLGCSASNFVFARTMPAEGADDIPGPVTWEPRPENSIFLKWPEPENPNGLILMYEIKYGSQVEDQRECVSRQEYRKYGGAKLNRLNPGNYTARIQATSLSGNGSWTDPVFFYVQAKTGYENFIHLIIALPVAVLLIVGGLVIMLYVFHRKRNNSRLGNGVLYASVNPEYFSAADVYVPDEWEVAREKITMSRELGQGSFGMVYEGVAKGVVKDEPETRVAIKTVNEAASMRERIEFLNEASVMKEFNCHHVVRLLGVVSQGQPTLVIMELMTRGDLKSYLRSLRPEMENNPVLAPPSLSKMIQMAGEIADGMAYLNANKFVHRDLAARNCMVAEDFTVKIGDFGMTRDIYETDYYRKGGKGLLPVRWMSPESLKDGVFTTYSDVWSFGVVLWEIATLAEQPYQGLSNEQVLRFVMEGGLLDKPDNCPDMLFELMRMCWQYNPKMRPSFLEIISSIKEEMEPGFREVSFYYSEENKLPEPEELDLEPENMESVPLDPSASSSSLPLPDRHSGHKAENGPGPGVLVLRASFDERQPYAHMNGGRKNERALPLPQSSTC
T5 sequence (P08069 31-736 partner limits assumed): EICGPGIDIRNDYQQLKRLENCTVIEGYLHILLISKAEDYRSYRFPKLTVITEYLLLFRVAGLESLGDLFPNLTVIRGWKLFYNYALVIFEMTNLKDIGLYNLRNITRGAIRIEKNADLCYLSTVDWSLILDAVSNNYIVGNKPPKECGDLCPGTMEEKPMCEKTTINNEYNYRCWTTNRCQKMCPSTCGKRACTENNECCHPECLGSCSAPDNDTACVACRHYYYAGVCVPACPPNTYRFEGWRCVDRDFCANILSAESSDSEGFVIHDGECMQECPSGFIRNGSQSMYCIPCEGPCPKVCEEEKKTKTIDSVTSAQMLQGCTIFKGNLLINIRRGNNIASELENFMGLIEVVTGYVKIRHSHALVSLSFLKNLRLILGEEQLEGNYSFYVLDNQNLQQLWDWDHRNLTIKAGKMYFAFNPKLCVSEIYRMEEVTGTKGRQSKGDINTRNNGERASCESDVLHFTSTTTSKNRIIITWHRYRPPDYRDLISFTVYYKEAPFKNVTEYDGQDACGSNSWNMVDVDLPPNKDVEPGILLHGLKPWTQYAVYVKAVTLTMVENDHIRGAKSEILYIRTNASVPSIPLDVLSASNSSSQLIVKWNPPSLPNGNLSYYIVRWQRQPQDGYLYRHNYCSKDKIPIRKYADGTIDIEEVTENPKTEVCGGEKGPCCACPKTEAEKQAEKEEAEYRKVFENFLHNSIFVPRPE

Structure (SMILES) | IC50 (K562) | IC50 (H929 (multiple myeloma)) | IC50 (Jak2) | IC50 (Karpas-299) | IC50 (IGF1R tyrosine kinase) | IC50 (Alk) | IC50 (InsR) | IC50 (Ba/F3) | IC50 (IGF1 receptor)
COC[C@@H](C)N1C(=O)c2cc3nc(-c4c(NC[C@@H](O)c5cccc(Cl)c5)cc[nH]c4=O)[nH]c3cc2C1=O [compound 30] | > 15 µM | > 15 µM | > 15 µM | > 15 µM | > 15 µM | > 15 µM | > 15 µM | > 15 µM | 
O=C1c2cc3nc(-c4c(NC[C@@H](O)c5cccc(Cl)c5)cc[nH]c4=O)[nH]c3cc2C(=O)N1CCN1CCCC1 [compound 17] |  |  |  |  |  |  |  |  | > 15 µM
COc1cc(C#N)ccc1OC[C@H](O)CNc1ccnc(O)c1-c1nc2cc3c(cc2[nH]1)C(=O)N(C1CCN(C)CC1)C3=O [compound 90] | 0.5 to 5 µM | 5 to 15 µM | 0.5 to 5 µM | 0.5 to 5 µM | 5 to 15 µM | > 15 µM | 5 to 15 µM | 5 to 15 µM | 
Cc1ccc(OC[C@H](O)CNc2cc[nH]c(=O)c2-c2nc3cc4c(cc3[nH]2)C(=O)N(CCCN2CCCC2)C4=O)c2c1CCC2 [compound 114] | > 15 µM | > 15 µM | 0.5 to 5 µM | > 15 µM | < 0.5 µM | 0.5 to 5 µM | < 0.5 µM | > 15 µM | 
CN1CCC(N2C(=O)c3cc4nc(-c5c(NC[C@@H](O)COc6ccc7c8c6CCCN8CCC7)cc[nH]c5=O)[nH]c4cc3C2=O)CC1 [compound 86] | 5 to 15 µM | > 15 µM | 0.5 to 5 µM | 5 to 15 µM | 0.5 to 5 µM | 0.5 to 5 µM | 5 to 15 µM | > 15 µM | 

Second part, the molecule after the results:

IC50 (K562) | IC50 (H929 (multiple myeloma)) | IC50 (Jak2) | IC50 (Karpas-299) | IC50 (IGF1R tyrosine kinase) | IC50 (Alk) | IC50 (InsR) | IC50 (Ba/F3) | IC50 (IGF1 receptor) | Structure (SMILES)
5 to 15 µM | 5 to 15 µM | 0.5 to 5 µM | 5 to 15 µM | < 0.5 µM | 0.5 to 5 µM | < 0.5 µM | 5 to 15 µM |  | Cc1ccc(OC[C@H](O)CNc2cc[nH]c(=O)c2-c2nc3cc4c(cc3[nH]2)C(=O)N(C2CCN(CCCO)CC2)C4=O)c(C)c1 [compound 129]
> 15 µM | > 15 µM | 0.5 to 5 µM | > 15 µM | 0.5 to 5 µM | 5 to 15 µM | < 0.5 µM | > 15 µM |  | Cc1ccc(OC[C@H](O)CNc2cc[nH]c(=O)c2-c2nc3c(C)c4c(cc3[nH]2)C(=O)N(C2CCN(C)CC2)C4=O)c(C)c1Cl [compound 137]
> 15 µM | > 15 µM | 0.5 to 5 µM | 5 to 15 µM | < 0.5 µM | 5 to 15 µM | < 0.5 µM | > 15 µM |  | Cc1ccc(OC[C@H](O)CNc2cc[nH]c(=O)c2-c2nc3cc4c(cc3[nH]2)C(=O)N(CC(C)(C)CN(C)C)C4=O)c(C)c1 [compound 116]
> 15 µM | > 15 µM | 0.5 to 5 µM | > 15 µM | < 0.5 µM | 0.5 to 5 µM | 0.5 to 5 µM | > 15 µM |  | Cc1c(Cl)cccc1OC[C@H](O)CNc1cc[nH]c(=O)c1-c1nc2cc3c(cc2[nH]1)C(=O)N(C1CCN(CCN(C)C)CC1)C3=O [compound 127]
> 15 µM | > 15 µM | 0.5 to 5 µM | 5 to 15 µM | < 0.5 µM | 0.5 to 5 µM | < 0.5 µM | > 15 µM |  | Cc1ccc(OC[C@H](O)CNc2cc[nH]c(=O)c2-c2nc3cc4c(cc3[nH]2)C(=O)N(CC2CCN(CCO)CC2)C4=O)c(C)c1 [compound 118]
> 15 µM | > 15 µM | 0.5 to 5 µM | 5 to 15 µM | < 0.5 µM | 5 to 15 µM | < 0.5 µM | > 15 µM |  | Cc1c(Cl)cccc1OC[C@H](O)CNc1cc[nH]c(=O)c1-c1nc2cc3c(cc2[nH]1)C(=O)N(CC(C)(C)CN(C)C)C3=O [compound 117]
